{"source": "ChEMBL document CHEMBL5725277", "about": "“Pyrazine derivatives as CB2 receptor agonists” (2016)", "key": {"Cannabinoid receptor 1": {"target": "Cannabinoid receptor 1 (Homo sapiens, UniProt P21554)", "sequence (P21554 whole entry)": "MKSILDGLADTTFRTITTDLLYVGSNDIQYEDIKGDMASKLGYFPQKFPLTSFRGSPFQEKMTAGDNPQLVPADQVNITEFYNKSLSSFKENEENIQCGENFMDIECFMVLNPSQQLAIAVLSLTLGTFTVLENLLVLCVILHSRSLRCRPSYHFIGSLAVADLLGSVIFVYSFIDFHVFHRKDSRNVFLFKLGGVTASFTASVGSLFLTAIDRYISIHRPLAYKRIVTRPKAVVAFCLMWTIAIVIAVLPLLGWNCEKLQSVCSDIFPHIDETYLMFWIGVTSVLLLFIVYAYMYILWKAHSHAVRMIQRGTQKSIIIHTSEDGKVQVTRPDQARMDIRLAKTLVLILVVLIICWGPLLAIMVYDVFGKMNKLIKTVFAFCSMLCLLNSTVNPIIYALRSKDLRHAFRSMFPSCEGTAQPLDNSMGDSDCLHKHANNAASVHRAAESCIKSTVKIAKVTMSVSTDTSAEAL", "assay": "(§1) cAMP Assay: CHO cells expressing human CB1 or CB2 receptors are seeded 17-24 hours prior to the experiment 50.000 cells per well in a black 96 well plate with flat clear bottom (Corning Costar #3904) in DMEM (Invitrogen No. 31331), 1xHT supplement, with 10% fetal calf serum and incubated at 5% CO2 and 37° C. in a humidified incubator. The growth medium was exchanged with Krebs Ringer Bicarbonate buffer with 1 mM IBMX and incubated at 30° C. for 30 min. Compounds were added to a final assay volume of 100 ul and incubated for 30 min at 30° C. Using the cAMP-Nano-TRF detection kit the assay (Roche Diagnostics) was stopped by the addition of 50 ul lysis reagent (Tris, NaCl, 1.5% Triton X100, 2.5% NP40, 10% NaN3) and 50 ul detection solutions (20 uM mAb Alexa700-cAMP 1:1, and 48 uM Ruthenium-2-AHA-cAMP) and shaken for 2 h at room temperature. The time-resolved energy transfer is measured by a TRF reader (Evotec Technologies GmbH), equipped with a ND:YAG laser as excitation source. The plate is measured twice with the excitation at 355 nm and at the emission with a delay of 100 ns and a gate of 100 ns, total exposure time 10 s at 730 (bandwidth 30 nm) or 645 nm (bandwidth 75 nm), respectively. The FRET signal is calculated as follows: FRET=T730-Alexa730-P (T645-B645) with P=Ru730-B730/Ru645-B645, where T730 is the test well measured at […], T645 is the test well measured at 645 nm, B730 and B645 are the buffer controls at 730 nm and 645 nm, respectively. cAMP content is determined from the function of a standard curve spanning from 10 uM to 0.13 nM cAMP. EC50 values were determined using Activity Base analysis (ID Business Solution, Limited). The EC50 values for a wide range of cannabinoid agonists generated from this assay were in agreement with the values published in the scientific literature."}, "Cannabinoid receptor 2": {"target": "Cannabinoid receptor 2 (Homo sapiens, UniProt P34972)", "sequence (P34972 whole entry)": "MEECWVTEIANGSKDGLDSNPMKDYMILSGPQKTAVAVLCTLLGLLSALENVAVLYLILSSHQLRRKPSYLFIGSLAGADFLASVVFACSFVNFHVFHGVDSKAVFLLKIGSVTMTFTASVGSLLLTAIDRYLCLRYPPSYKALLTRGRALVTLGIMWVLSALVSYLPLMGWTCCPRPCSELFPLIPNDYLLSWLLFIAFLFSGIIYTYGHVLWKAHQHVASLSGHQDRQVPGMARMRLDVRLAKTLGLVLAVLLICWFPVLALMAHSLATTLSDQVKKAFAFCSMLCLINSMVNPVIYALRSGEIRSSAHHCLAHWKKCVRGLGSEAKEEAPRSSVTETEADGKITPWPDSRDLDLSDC", "assay": "as §1"}}, "data": [{"smiles": "CC1(C)CCCN1C(=O)c1cnc(C2CC2)c(OCC2CC2)n1", "values": [{"measurement": "EC50", "setting": "Cannabinoid receptor 1", "value": "> 10000", "unit": "nM"}, {"measurement": "EC50", "setting": "Cannabinoid receptor 2", "value": 11.2, "unit": "nM"}]}, {"smiles": "CCN(C(=O)c1cnc(N2CC(F)(F)C2)c(OCC2CC2)n1)C(C)C", "values": [{"measurement": "EC50", "setting": "Cannabinoid receptor 1", "value": "> 10000", "unit": "nM"}, {"measurement": "EC50", "setting": "Cannabinoid receptor 2", "value": 19.9, "unit": "nM"}]}, {"smiles": "NC(=O)[C@@H]1CC(F)(F)CN1C(=O)c1cnc(C2CC2)c(OCC2CC2)n1", "values": [{"measurement": "EC50", "setting": "Cannabinoid receptor 1", "value": "> 10000", "unit": "nM"}, {"measurement": "EC50", "setting": "Cannabinoid receptor 2", "value": 23.5, "unit": "nM"}]}]}
